The test system of one test is S. cerevisiae. The test can be described thus: fungistatic MIC assay in antifungal agar. The format is cell-based. The settings on record: for activity after additional deletions at the C-terminal: relative to Db2-121. The procedure: The compounds of Table 1 were tested for fungistatic activity with an assay based on the work of Gordon, Lapa et.al. (18) with the nonpathogenic yeast S. cerevisiae in which ketoconazole is used as control. A semisolid is prepared to which is added serial dilutions of peptide. This antifungal agar is distributed in a well plate, and the S. Cerevisiae inoculum is then added to each well. Both ketokonoazole and H-5 are used as positive controls and buffer is used as a control blank. Minimum inhibitory concentration MIC, i.e. the concentration of the peptide under test which prevents growth, as observed visually, is recorded for each sample so that low values of MIC indicate potent antifungal compounds.
More specifically, stock peptide solutions (600 microliters or 1 ml) were prepared to 10 times the final concentration of the most concentrated test sample in a sodium phosphate buffer (0.01 M0, pH 7.4). Peptide concentrations were determined by UV absorbance at λ=275. Control blanks were also prepared using 1 ml buffer Five serial dilutions were made in sterile culture tubes with buffer to create a range of peptide concentrations. The final volume in each tube was either 300 microliter or 1 ml. Agar medium (2.7 or 4.5 ml) was added to each tube and mixed. Aliquots (1 ml) of each were added to a 24 well plate to give 6 different concentrations of each peptide per plate. […] A stock solution (10 mg/mL DMSO) was diluted 1:49 with buffer. A range of final concentrations of 20 to 0.16 micrograms/ml was tested. In addition, in later analog assays, H-5 was included as a positive peptide control. Histatin 5 was tested in a range from 200 micromolar to 6.3 micromolar. Other analogs were tested at concentrations anywhere from 200 μM down to 0.14 μM ubtil the analog with lowest MIC concentration was identified.
S. cerevisiae cells grown overnight were centrifuged and washed with a 0.85% saline solution, three times. Cell concentration was adjusted to 85% transmission at λ=530 with saline solution. Cells were further diluted 1:19. Inoculant (10 microL) was added to the peptide-containing medium. The cells were incubated on this medium for 24 hours at 37° C. The fungistatic MIC for these compounds was defined as the minimum concentration required to achieve 100% inhibition after 24 hours.

The subject of a further test is C. albicans. The settings on record: against C. albicans; cited from earlier work.
Where [1] appears, read: S. cerevisiae, minimum concentration for 100% inhibition after 24 hours at 37° C.

Positions of bridges follow the written chain, without caps; N, C: chain ends. Residues, ends and D or L forms follow the SMILES beside them. No end group written: not given here.

In the case of “Arg His His Cys Tyr Lys Arg Lys Phe His Glu Lys His His Cys His Arg Gly Tyr [Db3-35] (RHHCYKRKFHEKHHCHRGY; also: cyclic analogue, ring not given here)”, the MIC range against S. cerevisiae (setting [1]) is on record as 1.3-2.5.

`N=C(N)NCCC[C@H](NC(=O)[C@H](Cc1c[nH]cn1)NC(=O)[C@@H]1CSSC[C@H](NC(=O)[C@H](Cc2c[nH]cn2)NC(=O)[C@H](Cc2c[nH]cn2)NC(=O)[C@@H](N)CCCNC(=N)N)C(=O)N[C@@H](Cc2ccc(O)cc2)C(=O)N[C@@H](CCCCN)C(=O)N[C@@H](CCCNC(=N)N)C(=O)N[C@@H](CCCCN)C(=O)N[C@@H](Cc2ccccc2)C(=O)N[C@@H](Cc2c[nH]cn2)C(=O)N[C@@H](CCC(=O)O)C(=O)N[C@@H](CCCCN)C(=O)N[C@@H](Cc2c[nH]cn2)C(=O)N[C@@H](Cc2c[nH]cn2)C(=O)N1)C(=O)NCC(=O)N[C@@H](Cc1ccc(O)cc1)C(=O)O` [Db2-121] (H-RHHCYKRKFHEKHHCHRGY-OH; disulfide 4-15; N-terminus assumed): in the test on S. cerevisiae (against S. cerevisiae), the “times more potent than H-5” value was “approximately 100 times” and the “times more potent than ketoconazole” value is recorded as approximately 10 times. Take RHHKYRKFHEKHHEHRGY [Db3-41]: the MIC range in the test on S. cerevisiae (fungistatic activity) lay within 0.55 to 1.1 µM. “Arg His His Gly Cys Lys Arg Lys Phe His Glu Lys His His Cys His Arg Gly Tyr (RHHGCKRKFHEKHHCHRGY; disulfide 5-15 (inferred)) [Db2-178]”: the MIC range against S. cerevisiae (setting [1]) is recorded as 2.5-5. With “Arg His His Gly Tyr Lys Cys Lys Phe His Glu Lys His His Cys His Arg Gly Tyr (RHHGYKCKFHEKHHCHRGY; disulfide 7-15 (inferred)) [Db2-180]”, the MIC range against S. cerevisiae (setting [1]) is reported as 1.25-2.5.

Take “Arg His His Cys Tyr Lys Arg Lys Phe His Glu Lys His His Cys His (RHHCYKRKFHEKHHCH; disulfide 4-15 (inferred)) [Db3-25]”: the MIC range against S. cerevisiae (setting [1]) was more than 5.2. Still for that read-out and setting: to “Arg His His Gly Tyr Cys Arg Lys Phe His Glu Lys His His Cys His Arg Gly Tyr (RHHGYCRKFHEKHHCHRGY; disulfide 6-15 (inferred)) [Db2-179]” belongs 2.5-5.

Consider “RHHCYRKFHEKHHC (cysteine pairing not given here) [Db3-30]”, for which, in the test on S. cerevisiae (setting [1]), the MIC range was more than 5.2. Same read-out and setting: to `CC(=O)N1CCN(c2ccc(OCC3COC(Cn4ccnc4)(c4ccc(Cl)cc4Cl)O3)cc2)CC1` (centres unmarked) [Ketoconazole, reference compound] belongs 4.7; to “Arg His His Cys Tyr Lys Arg Lys Cys His Glu Lys His His Cys His Arg Cys Tyr (RHHCYKRKCHEKHHCHRCY; also: cyclic analogue, ring not given here) [Db2-100]”, 0.63-1.25. Consider “Arg His His Cys Tyr Lys Arg Lys Phe His Glu Lys His His Cys His Arg Gly (RHHCYKRKFHEKHHCHRG; also: cyclic analogue, ring not given here) [Db3-19]”, for which the MIC range in the test on S. cerevisiae (setting [1]) is 1.3-2.6. Moreover, the “activity after additional deletions at the C-terminal” value with S. cerevisiae is reported as “small loss of activity”. Turning to “Arg His His Cys Tyr Lys Arg Lys Phe His Glu Lys His His Cys His Arg Gly Tyr [Db3-53] (RHHCYKRKFHEKHHCHRGY; also: cyclic analogue, ring not given here)”, in the test with S. cerevisiae (setting [1]), the MIC range is recorded as more than 5. “Arg His His Cys Tyr Lys Arg Lys Phe His Glu Lys His His Cys His Arg (RHHCYKRKFHEKHHCHR; also: cyclic analogue, ring not given here) [Db3-15]”: the MIC range against S. cerevisiae (setting [1]) is listed as 2.6-5.2. Besides, in the test on S. cerevisiae, the “activity after additional deletions at the C-terminal” value is listed as “small loss of activity”. For the compound “Arg His His Gly Cys Lys Arg Lys Phe His Glu Lys His His Ser Cys Arg Gly Tyr (RHHGCKRKFHEKHHSCRGY; disulfide 5-16 (inferred)) [Db3-11]”, in the test with S. cerevisiae (setting [1]), the MIC range is on record as 2.5-5.

For “Arg His His Cys Tyr Lys Arg Lys His His Glu Lys His His Cys His Arg Gly Tyr (RHHCYKRKHHEKHHCHRGY; disulfide 4-15 (inferred)) [Db3-13]”, the MIC range in the test on S. cerevisiae (setting [1]) is recorded as 2.6-5.1. Consider “Arg His His Cys Trp Lys Arg Lys Phe His Glu Lys His His Cys His Arg Gly Tyr (RHHCWKRKFHEKHHCHRGY; disulfide 4-15 (inferred)) [Db3-67]”, for which the MIC range in the test on S. cerevisiae (setting [1]) is listed as 0.67-1.34. As to histatin-5 [Peptide H-5], the “minimum inhibitory concentration (MIC)” value with C. albicans is 10 µg/mL.

The values above are taken from patent US6555650B1, “Cyclic analogs of histatins” (priority 1999, dated 2003).
